Tests used:
human PCNA = human PCNA (Homo sapiens, UniProt P12004); assay: Competition-based fluorescence polarization assay with BODIPY-p21 peptide; assay type: binding; conditions: competition FP, abstract statement
PCNA trimer = assay: Gel filtration chromatography of PCNA/peptide complexes; assay type: binding, human; conditions: Superose 12, peptide : PCNA trimer 1:1; UV 280 nm
[1] = system: PCNA-dependent DNA synthesis; assay: Inhibition of PCNA-dependent DNA synthesis in HeLa cell extract; assay type: biochemical, human; conditions: PCNA titrated 0.05-2.5 μM (0.1-2.5 μM with 20 μM p21 peptide)
mammalian cells = conditions: overexpression in mammalian cells; ref [19]; [20]; cited from earlier work

Chain of human PCNA (P12004 whole entry): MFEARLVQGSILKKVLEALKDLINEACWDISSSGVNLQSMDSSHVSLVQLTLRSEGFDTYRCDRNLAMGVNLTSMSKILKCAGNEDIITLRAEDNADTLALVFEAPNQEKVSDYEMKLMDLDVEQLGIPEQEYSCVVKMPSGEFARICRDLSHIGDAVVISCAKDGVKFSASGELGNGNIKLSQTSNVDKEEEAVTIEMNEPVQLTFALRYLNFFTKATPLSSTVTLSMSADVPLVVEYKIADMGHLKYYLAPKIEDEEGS

Row | dissociation constant (in words) (human PCNA) | Substance | binding of single or multiple PCNA trimers (in words) (PCNA trimer) | rescue of DNA synthesis by added PCNA (in words) [1] | arrest of cell division (in words) (mammalian cells)
1 | low nanomolar dissociation constant | KRRQTSMTDFYHSKRRLIFSGGSGGSGGSGGSGGSGGSKRRQTSMTDFYHSKRRLIFS [divalent p21 peptide] | rules out the binding of multiple PCNA trimers | reversed the inhibition | –
2 | low nanomolar dissociation constant | KRRQTSMTDFYHSKRRLIFSGGSGGSGGSGGSGGSGGSKRRQTSMTDFYHSKRRLIFSGGSGGSGGSGGSGGSGGSKRRQTSMTDFYHSKRRLIFS [trivalent p21 peptide] | rules out the binding of multiple PCNA trimers | reversed the inhibition | –
3 | – | 20 amino-acid peptide spanning the C-terminus of p21: amino acids 141-160 of the native p21 | – | – | able to arrest cell division

— article PMC3417354 (Analytical biochemistry, 2012)
